Assay results: patent US6849598B1, “Therapeutic compositions comprising bactericidal/permeability-increasing (BPI) protein products” (XOMA, priority 1995, dated 2005)
Values after ≈ are worked out from the molar mass of the structure shown. Read-outs that look alike come from different tables or passages of the source.

What was measured:
A. baumannii = assay: Antibiotic susceptibility (MIC, Sensititre Trays) with rBPI21 poloxamer formulations; assay type: cell-based; conditions: for MIC: Acinetobacter baumannii, read-out: Minimum Inhibitory Concentration
Procedure: (§1) The effect of therapeutic compositions of rBPI21 formulated with poloxamer, with or without EDTA, was evaluated on the antibiotic susceptibility of the multiple drug resistant A. baumannii, S. pneumoniae, E. faecium and P. aeruginosa organisms of Example 5. Therapeutic compositions were prepared containing 2 mg/mL rBPI21, (5 mM sodium citrate, 150 mM NaCl) with a 0.2% (w/v) concentration of PLURONIC F68, P103, P104, P105 or P123. The effect on the antibiotic susceptibility of the organisms was determined in Mueller-Hinton Broth plus Cations (CSMHB, Remel), or 40% pooled human serum in CSMHB (Sigma, St. Louis, Mo.), as follows.
(§2) Isolated colonies of the organism from overnight cultures were suspended in Microscan® Inoculum Water to a concentration equivalent to a 0.5 McFarland Standard (approximately 1×10^8 CFU/ml), determined using a Microscan® turbidimeter. Aliquots were transferred to either CSMHB or 40% pooled human serum in CSMHB. Each tube contained either a final concentration of 16 μg/mL rBPI21 or an equivalent volume of control buffer. Minimal inhibitory concentrations (MIC) for each antibiotic tested, i.e. the lowest concentration of antibiotic which inhibits visible growth, were determined using gram-negative (MB and MC) and gram-positive (MA) Sensititre Trays (Radiometer America, Westlake, Ohio), which allow for the rapid and simultaneous survey of a broad spectrum of standard antibiotics. Any other antimicrobial panel systems known in the art, such as the Microscan® (Dade Microscan, Sacramento, Calif.), Pasco (DIFCO, Detroit, Mich.) and Alamar (Alamar, Sacramento, Calif.) systems, may alternatively be used to assay for antibiotic susceptibility.
(§3) Tables 12-15 below display a summary of the results of the antibiotic screening panels, reported for each strain tested as the MIC of the tested antibiotics in the presence of the indicated rBPI21 therapeutic composition. The antibiotic susceptibility standards (interpretation of an MIC as clinically resistant (R), intermediate (I) or susceptible (S) according to NCCLS standards) applicable to the organism tested appear in superscript next to the MIC.

P. aeruginosa = assay: as above; assay type: cell-based; conditions: for MIC: Pseudomonas aeruginosa, read-out: Minimum Inhibitory Concentration
Procedure: as §1, §2, §3

[1] = CSMHB, 16 μg/mL rBPI21 with F68
[2] = CSMHB, 16 μg/mL rBPI21 with P103
[3] = CSMHB, 16 μg/mL rBPI21 with P104
[4] = CSMHB, 16 μg/mL rBPI21 with P105
[5] = CSMHB, 16 μg/mL rBPI21 with P123
[6] = Serum, 16 μg/mL rBPI21 with F68
[7] = Serum, 16 μg/mL rBPI21 with P103
[8] = Serum, 16 μg/mL rBPI21 with P104
[9] = Serum, 16 μg/mL rBPI21 with P105
[10] = Serum, 16 μg/mL rBPI21 with P123

Structure (SMILES): CO/N=C(\C(=O)N[C@@H]1C(=O)N2C(C(=O)O)=C(CSc3nc(=O)c(=O)[nH]n3C)CS[C@H]12)c1csc(N)n1 [Ceftriaxone]
- MIC (A. baumannii; [1]): > 128 µg/mL
- MIC (A. baumannii; [2]): < 1 µg/mL
- MIC (A. baumannii; [3]): < 1 µg/mL
- MIC (A. baumannii; [4]): < 1 µg/mL
- MIC (A. baumannii; [5]): < 1 µg/mL
- MIC (A. baumannii; CSMHB, Control (no BPI)): 128 µg/mL (≈ 231 µM)
- MIC (A. baumannii; [6]): > 128 µg/mL
- MIC (A. baumannii; [7]): > 128 µg/mL
- MIC (A. baumannii; [8]): > 128 µg/mL
- MIC (A. baumannii; [9]): > 128 µg/mL
- MIC (A. baumannii; [10]): > 128 µg/mL
- MIC (A. baumannii; Serum, Control (no BPI)): > 128 µg/mL
- susceptibility interpretation of MIC (superscript) (A. baumannii; [1]): R
- susceptibility interpretation of MIC (superscript) (A. baumannii; [2]): S
- susceptibility interpretation of MIC (superscript) (A. baumannii; [3]): S
- susceptibility interpretation of MIC (superscript) (A. baumannii; [4]): S
- susceptibility interpretation of MIC (superscript) (A. baumannii; [5]): S
- susceptibility interpretation of MIC (superscript) (A. baumannii; CSMHB, Control (no BPI)): R
- susceptibility interpretation of MIC (superscript) (A. baumannii; [6]): R
- susceptibility interpretation of MIC (superscript) (A. baumannii; [7]): R
- susceptibility interpretation of MIC (superscript) (A. baumannii; [8]): R
- susceptibility interpretation of MIC (superscript) (A. baumannii; [9]): R
- susceptibility interpretation of MIC (superscript) (A. baumannii; [10]): R
- susceptibility interpretation of MIC (superscript) (A. baumannii; Serum, Control (no BPI)): R
- susceptibility interpretation of MIC (superscript) (P. aeruginosa; [1]): I
- susceptibility interpretation of MIC (superscript) (P. aeruginosa; [2]): S
- susceptibility interpretation of MIC (superscript) (P. aeruginosa; [3]): R
- susceptibility interpretation of MIC (superscript) (P. aeruginosa; [4]): I
- susceptibility interpretation of MIC (superscript) (P. aeruginosa; [5]): R
- susceptibility interpretation of MIC (superscript) (P. aeruginosa; CSMHB, Control (no BPI)): R
- MIC (P. aeruginosa; [1]): 32 µg/mL (≈ 57.7 µM)
- MIC (P. aeruginosa; [2]): 8 µg/mL (≈ 14.4 µM)
- MIC (P. aeruginosa; [3]): 128 µg/mL (≈ 231 µM)
- MIC (P. aeruginosa; [4]): 32 µg/mL (≈ 57.7 µM)
- MIC (P. aeruginosa; [5]): 128 µg/mL (≈ 231 µM)
- MIC (P. aeruginosa; CSMHB, Control (no BPI)): > 128 µg/mL
- MIC (P. aeruginosa; [6]): > 128 µg/mL
- MIC (P. aeruginosa; [7]): 16 µg/mL (≈ 28.9 µM)
- MIC (P. aeruginosa; [8]): 128 µg/mL (≈ 231 µM)
- MIC (P. aeruginosa; [9]): 16 µg/mL (≈ 28.9 µM)
- MIC (P. aeruginosa; [10]): 32 µg/mL (≈ 57.7 µM)
- MIC (P. aeruginosa; Serum, Control (no BPI)): 128 µg/mL (≈ 231 µM)
- susceptibility interpretation of MIC (superscript) (P. aeruginosa; [6]): R
- susceptibility interpretation of MIC (superscript) (P. aeruginosa; [7]): I
- susceptibility interpretation of MIC (superscript) (P. aeruginosa; [8]): R
- susceptibility interpretation of MIC (superscript) (P. aeruginosa; [9]): I
- susceptibility interpretation of MIC (superscript) (P. aeruginosa; [10]): I
- susceptibility interpretation of MIC (superscript) (P. aeruginosa; Serum, Control (no BPI)): R

Structure (SMILES): CO/N=C(\C(=O)N[C@@H]1C(=O)N2C(C(=O)O)=CCS[C@H]12)c1csc(N)n1 [Ceftizoxime]
- susceptibility interpretation of MIC (superscript) (P. aeruginosa; [1]): I
- susceptibility interpretation of MIC (superscript) (P. aeruginosa; [2]): I
- susceptibility interpretation of MIC (superscript) (P. aeruginosa; [3]): R
- susceptibility interpretation of MIC (superscript) (P. aeruginosa; [4]): I
- susceptibility interpretation of MIC (superscript) (P. aeruginosa; [5]): R
- susceptibility interpretation of MIC (superscript) (P. aeruginosa; CSMHB, Control (no BPI)): R
- MIC (P. aeruginosa; [1]): 32 µg/mL (≈ 83.5 µM)
- MIC (P. aeruginosa; [2]): 16 µg/mL (≈ 41.7 µM)
- MIC (P. aeruginosa; [3]): 128 µg/mL (≈ 334 µM)
- MIC (P. aeruginosa; [4]): 32 µg/mL (≈ 83.5 µM)
- MIC (P. aeruginosa; [5]): 128 µg/mL (≈ 334 µM)
- MIC (P. aeruginosa; CSMHB, Control (no BPI)): > 128 µg/mL
- MIC (P. aeruginosa; [6]): > 128 µg/mL
- MIC (P. aeruginosa; [7]): 16 µg/mL (≈ 41.7 µM)
- MIC (P. aeruginosa; [8]): 128 µg/mL (≈ 334 µM)
- MIC (P. aeruginosa; [9]): 16 µg/mL (≈ 41.7 µM)
- MIC (P. aeruginosa; [10]): 16 µg/mL (≈ 41.7 µM)
- MIC (P. aeruginosa; Serum, Control (no BPI)): 128 µg/mL (≈ 334 µM)
- susceptibility interpretation of MIC (superscript) (P. aeruginosa; [6]): R
- susceptibility interpretation of MIC (superscript) (P. aeruginosa; [7]): I
- susceptibility interpretation of MIC (superscript) (P. aeruginosa; [8]): R
- susceptibility interpretation of MIC (superscript) (P. aeruginosa; [9]): I
- susceptibility interpretation of MIC (superscript) (P. aeruginosa; [10]): I
- susceptibility interpretation of MIC (superscript) (P. aeruginosa; Serum, Control (no BPI)): R
